Test results as given in ChEMBL document CHEMBL1201862, “PubChem BioAssay data set” (2004).
Activity calls are given as the source filed them.

Experiments:
[1] = molecular target: Potassium voltage-gated channel subfamily KQT member 2 (Rattus norvegicus, UniProt O88943); experiment: retigabine-insensitive KCNQ2 potentiators, concentration-response, dose response, cell-based, retigabine-insensitive compounds (AID 2654); format: functional
Beta-galactosidase = Beta-galactosidase (Escherichia coli, UniProt Q8VNN2); experiment: beta-galactosidase enzyme inhibitors and activators, dose response, artefact control for CCR6 antagonist project, biochemical, E. coli enzyme, set 3 (AID 504712); format: functional
[2] = molecular target: Mitochondrial peptide methionine sulfoxide reductase (Bos taurus, UniProt P54149); experiment: Absorbance-based biochemical high throughput dose response assay for activators of Methionine sulfoxide reductase A (MsrA).; format: functional
Sequence of Mitochondrial peptide methionine sulfoxide reductase (P54149 whole entry): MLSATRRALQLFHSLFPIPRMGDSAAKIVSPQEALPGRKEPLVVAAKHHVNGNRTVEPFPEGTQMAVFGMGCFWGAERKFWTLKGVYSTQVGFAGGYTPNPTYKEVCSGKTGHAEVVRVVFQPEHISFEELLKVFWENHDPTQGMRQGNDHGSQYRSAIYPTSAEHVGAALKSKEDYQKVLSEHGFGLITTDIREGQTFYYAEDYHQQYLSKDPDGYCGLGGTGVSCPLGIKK

[3] = Luminescence Cell-Based Dose Response HTS to Identify Activators of Luciferase Translation or Activity in H4 […] Cells. [Related pubchem assays: 1829 (Project Summary), 1814 (Primary HTS)]; format: functional
H4 = experiment: Luminescence Cell-Based Dose Response HTS to Identify Activators of 5'UTR Stem-Loop Driven Prion Protein mRNA Translation in H4 Neuroglioblastoma Cells. [Related pubchem assays: 1829 (Project Summary), 1814 (Primary HTS)]; format: functional; conditions: Homo sapiens
[4] = molecular target: T1, Alkaline phosphatase, tissue-nonspecific isozyme (Homo sapiens, UniProt P05186)
T1 sequence (P05186 whole entry): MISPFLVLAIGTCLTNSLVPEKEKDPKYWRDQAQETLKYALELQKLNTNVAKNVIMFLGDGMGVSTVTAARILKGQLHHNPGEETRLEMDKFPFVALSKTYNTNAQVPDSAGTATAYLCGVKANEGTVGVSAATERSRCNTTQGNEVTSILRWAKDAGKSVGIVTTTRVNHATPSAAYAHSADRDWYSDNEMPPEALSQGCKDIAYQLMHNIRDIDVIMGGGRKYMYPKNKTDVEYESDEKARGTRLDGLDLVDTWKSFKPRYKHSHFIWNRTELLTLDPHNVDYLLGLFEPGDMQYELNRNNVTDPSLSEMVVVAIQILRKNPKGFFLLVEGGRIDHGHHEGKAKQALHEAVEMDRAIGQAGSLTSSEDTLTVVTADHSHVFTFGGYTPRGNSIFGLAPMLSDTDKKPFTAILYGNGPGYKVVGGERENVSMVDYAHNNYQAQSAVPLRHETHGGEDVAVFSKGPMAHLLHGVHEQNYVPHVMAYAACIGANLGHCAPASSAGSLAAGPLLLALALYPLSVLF

Mucolipin-3 [5] = molecular target: T2, Mucolipin-3 (Homo sapiens, UniProt Q8TDD5); experiment: TRPML3 and TRPML2 channel agonists, cell-based, patch clamp, Fura-2 profiling panel, panel member TRPML3 Dose Response (AID 2116)
T2 sequence (Q8TDD5 whole entry): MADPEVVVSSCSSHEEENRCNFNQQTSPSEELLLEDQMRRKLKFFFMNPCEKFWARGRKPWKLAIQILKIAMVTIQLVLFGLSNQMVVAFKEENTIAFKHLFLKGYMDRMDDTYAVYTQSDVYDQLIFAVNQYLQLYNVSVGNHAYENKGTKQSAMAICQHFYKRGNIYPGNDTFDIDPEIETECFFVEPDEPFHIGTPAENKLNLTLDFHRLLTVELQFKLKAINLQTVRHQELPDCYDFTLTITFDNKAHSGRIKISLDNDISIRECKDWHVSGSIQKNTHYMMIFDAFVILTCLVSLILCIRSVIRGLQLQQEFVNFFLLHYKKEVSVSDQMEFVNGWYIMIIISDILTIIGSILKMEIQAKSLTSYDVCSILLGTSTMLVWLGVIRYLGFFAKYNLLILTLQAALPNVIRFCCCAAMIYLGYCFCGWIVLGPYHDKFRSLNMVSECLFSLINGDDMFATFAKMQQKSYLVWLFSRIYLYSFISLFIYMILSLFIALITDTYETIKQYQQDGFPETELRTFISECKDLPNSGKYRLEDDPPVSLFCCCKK

Mucolipin-3 [6] = molecular target: T2, Mucolipin-3; experiment: Dose response cell-based high-throughput screening assay for agonists of the transient receptor potential channel ML3 (TRPML3). [Related pubchem assays: 1526, 1424, 1448 ]; format: functional
Ion channel NompC [7] = molecular target: T3, Ion channel NompC (Danio rerio, UniProt Q7T1G6); experiment: Fluorescence counterscreen assay for TRPML3 agonists: dose response cell-based high-throughput screening assay to identify agonists of the transient receptor potential channel N1 (TRPN1). [Related pubchem assays: 1526, 1424, 1448 ]; format: functional
T3 sequence (Q7T1G6 whole entry): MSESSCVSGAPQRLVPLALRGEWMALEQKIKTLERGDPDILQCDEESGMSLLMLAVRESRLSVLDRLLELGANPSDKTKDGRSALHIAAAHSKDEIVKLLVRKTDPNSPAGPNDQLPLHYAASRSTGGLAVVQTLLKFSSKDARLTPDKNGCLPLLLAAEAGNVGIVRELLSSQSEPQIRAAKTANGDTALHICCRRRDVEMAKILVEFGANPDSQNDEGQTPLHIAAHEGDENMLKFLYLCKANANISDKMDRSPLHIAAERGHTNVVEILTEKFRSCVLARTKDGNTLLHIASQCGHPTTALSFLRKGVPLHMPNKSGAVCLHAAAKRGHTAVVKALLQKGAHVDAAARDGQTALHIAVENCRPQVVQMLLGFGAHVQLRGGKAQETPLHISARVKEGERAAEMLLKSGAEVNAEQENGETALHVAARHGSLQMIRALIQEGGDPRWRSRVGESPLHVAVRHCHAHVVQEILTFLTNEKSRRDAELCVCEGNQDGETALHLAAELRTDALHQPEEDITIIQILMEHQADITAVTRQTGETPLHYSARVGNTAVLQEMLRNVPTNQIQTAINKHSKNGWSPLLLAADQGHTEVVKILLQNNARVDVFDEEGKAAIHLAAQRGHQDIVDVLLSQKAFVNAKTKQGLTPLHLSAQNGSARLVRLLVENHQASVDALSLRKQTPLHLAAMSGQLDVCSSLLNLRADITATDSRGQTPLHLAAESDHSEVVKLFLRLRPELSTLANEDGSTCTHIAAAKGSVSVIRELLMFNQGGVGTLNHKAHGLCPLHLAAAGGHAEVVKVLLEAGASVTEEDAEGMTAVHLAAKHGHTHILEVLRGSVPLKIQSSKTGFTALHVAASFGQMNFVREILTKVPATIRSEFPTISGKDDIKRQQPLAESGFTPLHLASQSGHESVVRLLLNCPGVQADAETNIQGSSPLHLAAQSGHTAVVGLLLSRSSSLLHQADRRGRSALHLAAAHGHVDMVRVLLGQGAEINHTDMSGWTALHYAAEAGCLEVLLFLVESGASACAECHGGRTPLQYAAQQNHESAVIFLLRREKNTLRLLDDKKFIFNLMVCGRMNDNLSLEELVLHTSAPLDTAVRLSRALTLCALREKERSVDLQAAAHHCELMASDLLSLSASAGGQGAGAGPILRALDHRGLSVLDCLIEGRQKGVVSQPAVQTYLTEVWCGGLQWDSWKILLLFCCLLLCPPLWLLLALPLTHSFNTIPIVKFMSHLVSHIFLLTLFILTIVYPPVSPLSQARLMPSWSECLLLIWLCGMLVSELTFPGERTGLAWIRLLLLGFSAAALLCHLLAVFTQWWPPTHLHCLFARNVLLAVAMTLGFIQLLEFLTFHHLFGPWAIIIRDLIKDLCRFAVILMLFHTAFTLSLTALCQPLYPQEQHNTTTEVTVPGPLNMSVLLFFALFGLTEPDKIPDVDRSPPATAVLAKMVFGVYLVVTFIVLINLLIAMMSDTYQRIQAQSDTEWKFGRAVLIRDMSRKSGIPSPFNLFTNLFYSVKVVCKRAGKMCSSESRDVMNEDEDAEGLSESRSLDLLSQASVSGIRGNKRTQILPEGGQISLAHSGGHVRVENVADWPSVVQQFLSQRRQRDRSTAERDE

Ion channel NompC [8] = molecular target: T3, Ion channel NompC; experiment: TRPML3 and TRPML2 channel agonists, cell-based, patch clamp, Fura-2 profiling panel, panel member TRPN1 Dose Response (AID 2116)
[9] = molecular target: NACHT, LRR and PYD domains-containing protein 3 (Homo sapiens, UniProt Q96P20); experiment: NALP3 inhibitors in yeast, dose response, luminescent (AID 488799); format: functional
Sequence of NACHT, LRR and PYD domains-containing protein 3 (Q96P20 whole entry, the tested form may be a part): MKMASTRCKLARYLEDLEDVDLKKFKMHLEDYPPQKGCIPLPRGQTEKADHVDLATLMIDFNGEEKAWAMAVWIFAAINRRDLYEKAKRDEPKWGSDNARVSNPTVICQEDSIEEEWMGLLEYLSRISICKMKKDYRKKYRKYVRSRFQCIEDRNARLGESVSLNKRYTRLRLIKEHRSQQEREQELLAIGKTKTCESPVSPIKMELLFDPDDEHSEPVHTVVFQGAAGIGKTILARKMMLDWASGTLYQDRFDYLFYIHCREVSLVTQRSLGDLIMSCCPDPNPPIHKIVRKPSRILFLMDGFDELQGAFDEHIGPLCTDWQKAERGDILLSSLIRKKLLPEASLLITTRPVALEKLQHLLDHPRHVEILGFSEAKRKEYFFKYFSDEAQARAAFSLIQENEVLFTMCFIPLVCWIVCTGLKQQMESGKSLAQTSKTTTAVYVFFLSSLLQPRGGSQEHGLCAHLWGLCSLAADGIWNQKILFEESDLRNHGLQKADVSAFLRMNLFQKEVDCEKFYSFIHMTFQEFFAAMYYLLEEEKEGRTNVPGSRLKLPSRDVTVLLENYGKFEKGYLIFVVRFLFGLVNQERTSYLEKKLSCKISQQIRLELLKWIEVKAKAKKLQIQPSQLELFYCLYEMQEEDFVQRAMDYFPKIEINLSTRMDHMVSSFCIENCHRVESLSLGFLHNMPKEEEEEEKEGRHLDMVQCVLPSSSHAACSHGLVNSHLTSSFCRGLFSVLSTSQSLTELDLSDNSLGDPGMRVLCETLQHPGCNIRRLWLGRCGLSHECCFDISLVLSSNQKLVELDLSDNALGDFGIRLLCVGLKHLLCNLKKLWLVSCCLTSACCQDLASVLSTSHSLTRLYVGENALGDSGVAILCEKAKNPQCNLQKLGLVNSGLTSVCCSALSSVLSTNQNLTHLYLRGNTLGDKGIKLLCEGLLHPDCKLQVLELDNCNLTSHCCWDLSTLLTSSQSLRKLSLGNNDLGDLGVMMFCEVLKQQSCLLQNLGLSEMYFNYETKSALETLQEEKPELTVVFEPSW

[10] = molecular target: Dual specificity protein phosphatase 3 (Homo sapiens, UniProt P51452); experiment: VHR1 inhibitor Ki determination, SAR follow-up, biochemical, colorimetric (AID 2004)
Sequence of Dual specificity protein phosphatase 3 (P51452 whole entry): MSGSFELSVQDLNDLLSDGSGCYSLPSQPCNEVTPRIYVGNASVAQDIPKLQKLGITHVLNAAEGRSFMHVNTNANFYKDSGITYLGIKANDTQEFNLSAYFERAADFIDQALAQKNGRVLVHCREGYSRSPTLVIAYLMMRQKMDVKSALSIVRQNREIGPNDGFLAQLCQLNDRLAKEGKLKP

[11] = molecular target: T4, Eukaryotic translation initiation factor 2-alpha kinase 3 (Homo sapiens, UniProt Q9NZJ5); experiment: Counterscreen assay for PERK inhibitors: Dose response cell-based high throughput screening assay to measure inhibition of PERK at 6 hours. [Related pubchem assays: 1522, 1416 ]; format: functional
T4 sequence (Q9NZJ5 whole entry): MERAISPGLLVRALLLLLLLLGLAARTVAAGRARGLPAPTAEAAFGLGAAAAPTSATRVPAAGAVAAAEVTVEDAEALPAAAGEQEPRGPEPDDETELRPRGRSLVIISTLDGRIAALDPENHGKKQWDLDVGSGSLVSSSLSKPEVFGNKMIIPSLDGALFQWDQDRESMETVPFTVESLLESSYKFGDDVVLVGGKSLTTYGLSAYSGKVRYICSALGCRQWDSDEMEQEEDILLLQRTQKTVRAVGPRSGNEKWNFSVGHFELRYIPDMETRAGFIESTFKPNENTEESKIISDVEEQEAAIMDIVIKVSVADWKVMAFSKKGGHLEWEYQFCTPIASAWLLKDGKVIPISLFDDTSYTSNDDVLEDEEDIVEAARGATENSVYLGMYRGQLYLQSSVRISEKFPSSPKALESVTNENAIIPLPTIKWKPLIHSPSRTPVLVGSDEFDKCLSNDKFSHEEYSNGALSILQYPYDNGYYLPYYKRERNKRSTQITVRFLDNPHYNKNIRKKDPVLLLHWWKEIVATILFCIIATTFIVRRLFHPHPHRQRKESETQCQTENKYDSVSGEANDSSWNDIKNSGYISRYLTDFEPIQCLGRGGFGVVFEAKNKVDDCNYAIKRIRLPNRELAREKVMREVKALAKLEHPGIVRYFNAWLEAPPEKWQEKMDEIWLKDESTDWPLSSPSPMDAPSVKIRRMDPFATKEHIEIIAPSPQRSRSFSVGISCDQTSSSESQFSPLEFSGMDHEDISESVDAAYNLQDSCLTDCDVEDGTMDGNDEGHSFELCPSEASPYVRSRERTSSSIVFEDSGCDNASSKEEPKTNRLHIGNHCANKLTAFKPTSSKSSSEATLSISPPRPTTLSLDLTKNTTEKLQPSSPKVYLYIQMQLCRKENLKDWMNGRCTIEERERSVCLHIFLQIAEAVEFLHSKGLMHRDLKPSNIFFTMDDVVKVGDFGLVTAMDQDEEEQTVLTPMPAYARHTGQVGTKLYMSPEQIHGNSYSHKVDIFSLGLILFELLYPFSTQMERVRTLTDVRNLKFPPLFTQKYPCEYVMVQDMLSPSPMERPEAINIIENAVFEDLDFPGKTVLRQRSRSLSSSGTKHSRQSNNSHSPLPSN

[12] = molecular target: T4, Eukaryotic translation initiation factor 2-alpha kinase 3; experiment: Dose response cell-based high-throughput screening assay to measure PERK inhibition. [Related pubchem assays: 1416 ]; format: functional
Streptococcus = experiment: Luminescence Microorganism-Based Dose Response Follow up to Identify Compounds Cytotoxic to Streptococcus. [Related pubchem assays: 1677 (Project Summary), 1915, 1914, 1902 (Retest at Dose), 1900 (Counter Screen), 1662 (Primary HTS)]; format: functional, organism-based

SMILES: S=C(Nc1ccc(Nc2ccccc2)cc1)Nc1cccnc1
- EC50 [1]: 11 µM (active)

SMILES: CS(=O)(=O)c1cc([N+](=O)[O-])c(Sc2nc3ccccc3[nH]2)c([N+](=O)[O-])c1
- IC50 (Beta-galactosidase): > 66.6 µM (inactive)
- EC50 [2]: > 104 µM (inactive)

SMILES: Cc1ccc(-c2cc(-c3ccccc3[N+](=O)[O-])[nH]n2)c(O)c1
- EC50 [3]: 2.35 µM (inconclusive)
- EC50 (H4): > 120 µM (not active)
- EC50 [4]: 80.2 µM (not active)

SMILES: O=S(=O)(Nc1ccccc1N1CCCCC1)c1ccc(Cl)s1
- EC50 (Mucolipin-3 [5]): 620 nM (active)
- EC50 (Mucolipin-3 [6]): 872 nM (active)
- EC50 (Ion channel NompC [7]): > 29.9 µM (not active)
- EC50 (Ion channel NompC [8]): > 29.9 µM (inactive)

SMILES: COc1cccc(NC(=O)c2ccccc2)c1
- IC50 [9]: 13.7 µM (active)

SMILES: CC(Oc1ccc2oc(-c3ccccc3)c(C(=O)O)c2c1)C(=O)O (stereo not given)
- Ki [10]: 102 µM (inactive)

SMILES: Cn1nccc1NC(=O)Nc1ccc(OC(F)(F)F)cc1
- EC50 [11]: > 55.7 µM (not active)
- EC50 [12]: > 55.7 µM (not active)

SMILES: CC(C)(C)N/N=C1\CC(c2ccccc2)Oc2ccccc21 (stereo not given)
- EC50 (Streptococcus): > 500 µM (not active)
